These results are taken from patent US9175011B2, “Morpholino substituted urea or carbamate derivatives as MTOR inhibitors” (CELLZOME LIMITED, priority 2011, dated 2015).

One test addresses T1, PI3K delta (PI3Kd) (Homo sapiens, UniProt O00329).
T1 construct: Jurkat cells were homogenized in a Potter S homogenizer in lysis buffer; endogenous in cells; host or cells: Jurkat, clone E6-1 (ATCC TIB-152) lysate
In words: kinobeads assay, PI3K delta. Format: binding. To be noted: Jurkat cell lysate, read-out: Inhibition values (IC50) PI3Kd. In outline: (§1)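 Jurkat lysate, 5 mg/ml protein, 3 h cold-room incubation with test compound (9-step 1:3 series) and immobilized-ligand affinity beads. Wash, SDS elution, dot blot with specific antibody, Odyssey infrared read. IC50 fitted per kinase.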

For test [1], the target named is T2, DNA-dependent protein kinase (DNA-PK) (Homo sapiens, UniProt P78527).
T2 construct: Jurkat cells were homogenized in a Potter S homogenizer in lysis buffer; endogenous in cells; host or cells: Jurkat, clone E6-1 (ATCC TIB-152) lysate
The test is described as follows: kinobeads assay, DNA-PK. Format: binding. The settings on record: Jurkat cell lysate, read-out: Inhibition values (IC50) DNA-PK. In outline: as §1

The target in another test is T3, PI3K gamma (PI3Kg) (Homo sapiens, UniProt P48736).
T3 construct: Jurkat cells were homogenized in a Potter S homogenizer in lysis buffer; endogenous in cells; host or cells: Jurkat, clone E6-1 (ATCC TIB-152) lysate
The test is described as follows: kinobeads assay, PI3K gamma. The settings on record: Jurkat cell lysate, read-out: Inhibition values (IC50) PI3Kg. Format: binding. Put shortly: as §1

Test [2] relates to Akt serine-473 phosphorylation. The test is described as follows: In vitro phospho-Akt cellular assay (HEK293T/17). Format: cell-based. The settings on record: Homo sapiens; HEK293T/17 cells, 2 hours, pAkt Ser 473; read-out: Inhibition values (IC50) pAkt. The text has this: Activation of mTOR signaling results in phosphorylation of several downstream targets. In cells, mTOR exists in two different protein complexes. The mTOR Complex-1 (mTORC1) phosphorylates and activates S6 Kinase 1 (S6K1) and S6 Kinase 2 (S6K2) (also known as p70S6K) which then phosphorylate S6 Ribosomal Protein (S6RP) (also known as RPS6)3. S6RP is phosphorylated on serine 235, senile 236, serine 240 and serine 244 by both pS6K1 and pS6K2. The mTOR Complex-2 (mTORC2) phosphorylates AKT on serine 473 which activates the AKT signaling pathway.
The assay measures a test compound's inhibition of S6RP serine-240/244 phosphorylation and inhibition of Akt serine-473 phosphorylation in human embryonic kidney derived HEK293T/17 cells (ATCC CRL-11268).
The HEK293T/17 cell line is maintained in DMEM media (Invitrogen catalogue number 41965-039) supplemented with 10% FCS at 37° C. in a 5% CO2 humidified incubator. Cells are seeded in 96-well plates at 40,000 cells/well (pS6RP S240/244 assay) or 80,000 cells/well (pAkt 5473 assay) in 90 μl growth media (DMEM, 2% FCS). Plates are incubated for 1 hour in a humidified incubator to allow the cells to adhere. Cells are treated with 8 concentrations of test compounds or DMSO alone for controls (final DMSO concentration 0.1%) and incubated at 37° C. for 2 hours. Then 20 μl of 5× concentrated lysis buffer (750 mM NaCl, 100 mM Tris pH7.4, 5 mM ADTA, 5 mM EGTA, 5% Triton X-100) is added, plates are sealed and incubated for 15 minutes at 4° C. with gentle shaking After cell lysis, 25 μl cell lysate is transferred to a MesoScale plate coated with an antibody to pS6RP Ser240/244 (MesoScale Discovery K150DGD-3) or an antibody to pAkt Ser 473 (MesoScale Discovery K151DGD-3). Plates have been blocked before by incubation with 150 μl MesoScale Discovery Blocking Solution-A for 1 hour at room temperature followed by washing with 150 μl 1×Tris wash buffer per well. After the transfer of the cell lysate to the MSD plate, the pS6RP (or pAkt) protein is captured on the coated antibody by incubation at room temperature for 1 hour with gentle shaking. After the capture step the plate is washed three times with 150 μl of 1× Tris wash buffer per well. Then 25 μl detection antibody conjugated with a Sulfo-Tag is added and incubated for 1 hour at room temperature with gentle shaking. Subsequently the antibody solution is removed and the plate is washed 3 times with 150 μl 1×Tris wash buffer per well and 150 μl Read buffer is added. The plates are analysed on a MSD 2400 Plate Reader (MesoScale Discovery). Data analysis is performed using nonlinear regression for a sigmoidal dose-response with a variable slope.

A further test has as its target T4, PI3K beta (PI3Kb) (Homo sapiens, UniProt P42338).
T4 construct: Jurkat cells were homogenized in a Potter S homogenizer in lysis buffer; endogenous in cells; host or cells: Jurkat, clone E6-1 (ATCC TIB-152) lysate
The test is described as follows: kinobeads assay, PI3K beta. The format is binding. The settings on record: Jurkat cell lysate, read-out: Inhibition values (IC50) PI3Kb. In outline:
as §1

Another test addresses T5, PI3K alpha (PI3Kα) (Homo sapiens, UniProt P42336).
T5 construct: Jurkat cells were homogenized in a Potter S homogenizer in lysis buffer; endogenous in cells; host or cells: Jurkat, clone E6-1 (ATCC TIB-152) lysate
The test is described as follows: kinobeads assay, PI3K alpha. The format is binding. The settings on record: Jurkat cell lysate, read-out: Inhibition values (IC50) PI3Ka. In outline:
as §1

Test [3] has as its system S6RP serine-240/244 phosphorylation. The test is described as follows: In vitro phospho-S6 cellular assay (HEK293T/17). Format: cell-based. The settings on record: Homo sapiens; HEK293T/17 cells, 2 hours, pS6RP Ser240/244; read-out: Inhibition values (IC50) pS6. Put shortly: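 HEK293T/17 cells in DMEM with 2% FCS were exposed to 8 compound concentrations (0.1% DMSO) for 2 h at 37 °C, then lysed. pS6RP Ser240/244 or pAkt Ser473 in the lysates was quantified by MSD sandwich electrochemiluminescence. IC50 was obtained by sigmoidal variable-slope nonlinear regression.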

A further test deals with T6, mTOR (Homo sapiens, UniProt P42345).
T6 construct: Jurkat cells were homogenized in a Potter S homogenizer in lysis buffer; endogenous in cells; host or cells: Jurkat, clone E6-1 (ATCC TIB-152) lysate
In words: mTOR kinobeads assay (Jurkat cell lysate, dot blot detection). Format: binding. The settings on record: read-out: Inhibition values (IC50) mTor. Put shortly:
as §1

T2 sequence (P78527 whole entry): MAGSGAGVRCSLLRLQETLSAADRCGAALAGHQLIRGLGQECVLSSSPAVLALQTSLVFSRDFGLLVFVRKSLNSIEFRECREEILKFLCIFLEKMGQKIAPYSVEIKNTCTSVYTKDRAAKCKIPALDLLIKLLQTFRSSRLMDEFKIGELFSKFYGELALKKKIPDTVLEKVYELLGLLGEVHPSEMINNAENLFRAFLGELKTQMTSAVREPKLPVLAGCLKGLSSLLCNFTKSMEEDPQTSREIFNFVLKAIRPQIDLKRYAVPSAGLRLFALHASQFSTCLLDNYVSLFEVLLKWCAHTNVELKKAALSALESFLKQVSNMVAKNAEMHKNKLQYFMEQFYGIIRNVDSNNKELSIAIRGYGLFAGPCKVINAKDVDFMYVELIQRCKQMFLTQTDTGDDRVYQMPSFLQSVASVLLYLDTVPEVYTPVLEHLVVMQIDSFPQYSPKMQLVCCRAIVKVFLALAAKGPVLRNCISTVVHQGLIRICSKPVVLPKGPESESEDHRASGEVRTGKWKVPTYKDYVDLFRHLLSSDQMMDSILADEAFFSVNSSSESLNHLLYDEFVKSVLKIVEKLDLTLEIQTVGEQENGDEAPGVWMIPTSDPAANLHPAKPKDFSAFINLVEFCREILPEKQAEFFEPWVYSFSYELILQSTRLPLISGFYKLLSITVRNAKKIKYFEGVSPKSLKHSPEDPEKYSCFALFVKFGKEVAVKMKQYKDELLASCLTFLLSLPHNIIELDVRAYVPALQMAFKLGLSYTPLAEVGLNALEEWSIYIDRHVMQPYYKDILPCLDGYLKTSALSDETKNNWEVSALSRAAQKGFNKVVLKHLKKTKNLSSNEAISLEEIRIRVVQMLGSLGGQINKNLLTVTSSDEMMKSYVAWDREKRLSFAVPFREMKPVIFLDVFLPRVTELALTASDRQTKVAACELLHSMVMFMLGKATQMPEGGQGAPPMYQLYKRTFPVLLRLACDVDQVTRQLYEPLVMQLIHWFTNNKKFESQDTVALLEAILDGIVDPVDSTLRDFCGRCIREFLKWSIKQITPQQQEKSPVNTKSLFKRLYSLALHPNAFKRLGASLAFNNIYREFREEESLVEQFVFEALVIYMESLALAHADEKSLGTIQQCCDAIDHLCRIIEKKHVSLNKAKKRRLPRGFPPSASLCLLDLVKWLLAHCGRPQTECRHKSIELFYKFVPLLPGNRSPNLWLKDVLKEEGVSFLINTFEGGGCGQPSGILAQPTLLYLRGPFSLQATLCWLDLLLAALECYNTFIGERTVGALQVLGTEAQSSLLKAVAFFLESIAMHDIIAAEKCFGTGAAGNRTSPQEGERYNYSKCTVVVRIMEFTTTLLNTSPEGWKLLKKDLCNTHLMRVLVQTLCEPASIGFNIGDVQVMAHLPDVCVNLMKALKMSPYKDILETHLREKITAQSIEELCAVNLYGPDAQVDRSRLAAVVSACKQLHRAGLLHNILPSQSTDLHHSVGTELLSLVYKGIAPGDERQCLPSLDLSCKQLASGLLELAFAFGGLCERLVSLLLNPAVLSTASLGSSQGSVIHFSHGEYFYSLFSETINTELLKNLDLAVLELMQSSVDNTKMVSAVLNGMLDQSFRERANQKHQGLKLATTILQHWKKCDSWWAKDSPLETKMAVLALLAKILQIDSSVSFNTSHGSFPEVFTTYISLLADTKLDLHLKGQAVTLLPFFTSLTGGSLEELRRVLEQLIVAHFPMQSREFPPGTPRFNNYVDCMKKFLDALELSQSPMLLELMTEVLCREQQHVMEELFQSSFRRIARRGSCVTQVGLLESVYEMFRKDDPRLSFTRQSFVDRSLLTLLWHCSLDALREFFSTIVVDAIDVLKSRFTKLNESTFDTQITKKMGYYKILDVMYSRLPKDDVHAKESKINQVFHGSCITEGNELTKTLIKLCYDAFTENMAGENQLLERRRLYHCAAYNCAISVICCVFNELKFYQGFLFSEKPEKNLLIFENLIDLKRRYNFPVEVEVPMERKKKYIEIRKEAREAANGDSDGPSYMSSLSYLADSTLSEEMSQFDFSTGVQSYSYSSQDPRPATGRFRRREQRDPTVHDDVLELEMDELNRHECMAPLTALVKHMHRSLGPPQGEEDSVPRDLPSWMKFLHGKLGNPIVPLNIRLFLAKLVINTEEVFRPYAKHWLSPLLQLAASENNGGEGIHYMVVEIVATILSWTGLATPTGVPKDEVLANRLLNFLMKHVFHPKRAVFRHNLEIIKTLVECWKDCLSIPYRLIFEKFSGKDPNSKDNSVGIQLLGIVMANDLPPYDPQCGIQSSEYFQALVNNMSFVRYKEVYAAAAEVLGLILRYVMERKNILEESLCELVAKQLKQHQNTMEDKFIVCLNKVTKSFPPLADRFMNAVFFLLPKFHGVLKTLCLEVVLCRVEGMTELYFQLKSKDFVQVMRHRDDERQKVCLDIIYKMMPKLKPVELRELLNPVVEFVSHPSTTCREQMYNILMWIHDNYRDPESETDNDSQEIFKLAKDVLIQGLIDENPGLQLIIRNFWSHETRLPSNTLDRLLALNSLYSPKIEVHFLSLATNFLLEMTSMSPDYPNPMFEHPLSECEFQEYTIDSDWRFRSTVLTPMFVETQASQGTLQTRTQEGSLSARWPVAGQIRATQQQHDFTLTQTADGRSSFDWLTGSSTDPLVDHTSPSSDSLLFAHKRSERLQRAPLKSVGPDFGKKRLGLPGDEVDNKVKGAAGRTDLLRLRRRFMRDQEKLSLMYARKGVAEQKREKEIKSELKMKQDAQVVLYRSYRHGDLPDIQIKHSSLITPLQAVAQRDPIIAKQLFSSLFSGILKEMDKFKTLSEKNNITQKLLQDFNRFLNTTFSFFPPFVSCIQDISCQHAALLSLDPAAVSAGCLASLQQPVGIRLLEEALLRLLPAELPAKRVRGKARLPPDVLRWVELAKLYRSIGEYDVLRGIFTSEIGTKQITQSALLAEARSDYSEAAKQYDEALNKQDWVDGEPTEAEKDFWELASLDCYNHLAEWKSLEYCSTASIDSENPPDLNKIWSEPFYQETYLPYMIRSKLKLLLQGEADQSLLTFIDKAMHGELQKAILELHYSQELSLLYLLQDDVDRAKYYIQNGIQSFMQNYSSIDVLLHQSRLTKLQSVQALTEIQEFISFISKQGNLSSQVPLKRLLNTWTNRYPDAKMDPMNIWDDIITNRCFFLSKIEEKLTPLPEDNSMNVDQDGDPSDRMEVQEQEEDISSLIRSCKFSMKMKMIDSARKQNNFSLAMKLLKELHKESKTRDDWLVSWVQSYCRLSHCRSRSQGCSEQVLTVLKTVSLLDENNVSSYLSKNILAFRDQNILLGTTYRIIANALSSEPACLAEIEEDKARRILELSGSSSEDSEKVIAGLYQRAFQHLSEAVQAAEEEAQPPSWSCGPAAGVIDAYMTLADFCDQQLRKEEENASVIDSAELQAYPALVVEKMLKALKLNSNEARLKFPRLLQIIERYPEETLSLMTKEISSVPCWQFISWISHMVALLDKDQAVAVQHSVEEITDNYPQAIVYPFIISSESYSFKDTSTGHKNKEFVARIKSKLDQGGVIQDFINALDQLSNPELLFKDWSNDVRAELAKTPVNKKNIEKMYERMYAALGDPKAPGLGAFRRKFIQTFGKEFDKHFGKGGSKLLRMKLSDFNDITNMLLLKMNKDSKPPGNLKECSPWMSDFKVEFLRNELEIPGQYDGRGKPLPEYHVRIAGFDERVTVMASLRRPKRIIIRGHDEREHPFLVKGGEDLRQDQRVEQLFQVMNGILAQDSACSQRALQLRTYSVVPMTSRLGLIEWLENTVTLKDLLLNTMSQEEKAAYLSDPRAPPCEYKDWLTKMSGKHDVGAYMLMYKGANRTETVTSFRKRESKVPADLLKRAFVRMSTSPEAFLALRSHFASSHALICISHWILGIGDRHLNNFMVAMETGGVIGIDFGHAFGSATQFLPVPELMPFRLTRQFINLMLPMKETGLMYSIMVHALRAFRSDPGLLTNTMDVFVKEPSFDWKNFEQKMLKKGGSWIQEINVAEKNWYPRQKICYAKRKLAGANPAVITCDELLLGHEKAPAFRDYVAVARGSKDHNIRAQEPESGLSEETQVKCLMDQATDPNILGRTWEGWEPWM

The term IC50 denotes the concentration that gives 50% inhibition. With `C[C@H]1COCCN1c1nc(-c2ccc(NC(=O)NC3CC3)cc2)nc(-c2cc(F)ccc2S(C)(=O)=O)n1` [Example 5, (S)-1-cyclopropyl-3-(4-(4-(5-fluoro-2-(methylsulfonyl)phenyl)-6-(3-methylmorpholino)-1,3,5-triazin-2-yl)phenyl)urea], the half-maximal inhibitory concentration (IC50) at PI3K delta (PI3Kd) was above 10 µM; in test [1] it was above 10 µM; at PI3K gamma (PI3Kg), above 10 µM; in test [2], below 0.1 µM; at PI3K beta (PI3Kb), above 10 µM; on PI3K alpha (PI3Kα), above 10 µM. Further, the IC50 in test [3] is below 0.1 µM; on mTOR, 0.1 to 1 µM.
With `C[C@H]1COCCN1c1nc(-c2ccc(NC(=O)NCCO)cc2)nc(-c2cc(F)ccc2S(C)(=O)=O)n1` [Example 6, (S)-1-(4-(4-(5-fluoro-2-(methylsulfonyl)phenyl)-6-(3-methylmorpholino)-1,3,5-triazin-2-yl)phenyl)-3-(2-hydroxyethyl)urea], the IC50 on PI3K delta (PI3Kd) was above 10 µM; in test [1] it was above 10 µM; on PI3K gamma (PI3Kg) it was above 10 µM; in test [2] it was below 0.1 µM; on PI3K beta (PI3Kb) it was above 10 µM; on PI3K alpha (PI3Kα) it was above 10 µM. The IC50 is 0.1 to 1 µM in test [3] and below 0.1 µM on mTOR.
Take `C[C@H]1COCCN1c1nc(-c2ccc(NC(=O)NCCF)cc2)nc(-c2ccccc2S(C)(=O)=O)n1` [Example 7, (S)-1-(2-fluoroethyl)-3-(4-(4-(3-methylmorpholino)-6-(2-(methylsulfonyl)phenyl)-1,3,5-triazin-2-yl)phenyl)urea]: the IC50 is above 10 µM at PI3K delta (PI3Kd); above 10 µM in test [1]; above 10 µM on PI3K gamma (PI3Kg); below 0.1 µM in test [2]; above 10 µM at PI3K beta (PI3Kb); above 10 µM on PI3K alpha (PI3Kα). For the same compound, the IC50 (in test [3]; on mTOR) was below 0.1 µM throughout.
Consider `C[C@H]1COCCN1c1nc(-c2ccc(NC(=O)NCC(F)F)cc2)nc(-c2ccccc2S(C)(=O)=O)n1` [Example 8, (S)-1-(2,2-difluoroethyl)-3-(4-(4-(3-methylmorpholin)-6-(2-(methylsulfonyl)phenyl)-1,3,5-triazin-2-yl)phenyl)urea], for which the IC50 on PI3K delta (PI3Kd) was above 10 µM; in test [1], above 10 µM; at PI3K gamma (PI3Kg), above 10 µM; in test [2], below 0.1 µM; on PI3K beta (PI3Kb), above 10 µM; at PI3K alpha (PI3Kα), above 10 µM. Also, the half-maximal inhibitory concentration (IC50) (in test [3]; on mTOR) was below 0.1 µM each time.
For `CCNC(=O)Nc1ccc(-c2nc(-c3ccccc3S(C)(=O)=O)nc(N3CCOC[C@@H]3C)n2)cc1` [Example 10, (S)-1-ethyl-3-(4-(4-(3-methylmorpholino)-6-(2-(methylsulfonyl)phenyl)-1,3,5-triazin-2-yl)phenyl)urea], the IC50 on PI3K delta (PI3Kd) was above 10 µM; in test [1] it was above 10 µM; at PI3K gamma (PI3Kg), above 10 µM; in test [2], below 0.1 µM; on PI3K beta (PI3Kb), above 10 µM; at PI3K alpha (PI3Kα), above 10 µM. In addition, the IC50 (in test [3]; at mTOR) was below 0.1 µM each time.
For `CNC(=O)Nc1ccc(-c2nc(-c3ccccc3S(C)(=O)=O)nc(N3CCOC[C@@H]3C)n2)cc1` [Example 14, (S)-1-methyl-3-(4-(4-(3-methylmorpholino)-6-(2-(methylsulfonyl)phenyl)-1,3,5-triazin-2-yl)phenyl)urea], the IC50 at PI3K delta (PI3Kd) was above 10 µM; in test [1], above 10 µM; at PI3K gamma (PI3Kg), above 10 µM; in test [2], below 0.1 µM; on PI3K beta (PI3Kb), above 10 µM; on PI3K alpha (PI3Kα) it was above 10 µM. Besides, the results for the IC50 (in test [3]; at mTOR) were below 0.1 µM and 0.1 to 1 µM, respectively.
As for `C[C@H]1COCCN1c1nc(-c2ccc(NC(=O)NC3CC3)cc2)nc(-c2cccnc2S(C)(=O)=O)n1` [Example 24, (S)-1-cyclopropyl-3-(4-(4-(3-methylmorpholino)-6-(2-(methylsulfonyl)pyridin-3-yl)-1,3,5-triazin-2-yl)phenyl)urea], the IC50 is 1 to 10 µM at PI3K delta (PI3Kd); above 10 µM in test [1]; above 10 µM on PI3K gamma (PI3Kg); below 0.1 µM in test [2]; 1 to 10 µM on PI3K beta (PI3Kb); above 10 µM on PI3K alpha (PI3Kα). In addition, the IC50 (in test [3]; on mTOR) was below 0.1 µM in each case.
